Source: US20150197500A1, “NO-RELEASING GUANIDINE-CHROMENE CONJUGATES” (Euclises Pharmaceuticals, Inc., priority 2014, published 2015)
Structures can show the parent of a compound that is named as a salt.

Tested on: PGE2 production
Experiment: Rat air-pouch model for acute inflammation (PGE2 in exudate by ELISA)
Format: in vivo, Sprague-Dawley rats
Conditions: oral gavage 0.01 mmol/kg 2 h before carrageenan, exudate 4 h after carrageenan, 6 rats/group
Procedure: A study of chromene release is assessed by measurement of PGE2 levels, which are indicative of inflammatory response.
Animals: Sprague-Dawley rats (Charles River Laboratories, R #3234, PO #738990, male, 160-180 g) are received, individually examined, and housed in cages of five rats each. The rats are ear notched for identification purposes.
Compounds and dosing solutions: The vehicle is prepared by dissolving 40 g (2-hydroxypropyl)-[…] making a 25% solution which is filter sterilized (0.2 μm, Nalgene, Cat. 151-4020, lot 1095610). […]
Day 6—Compound administration and carrageenan insult: At commencement of the study, each rat is weighed and sorted into treatment groups of 6 rats/group based upon average weight. […] The pouch is gently massaged, the exudate immediately removed, and exudate volume recorded. […]
Data analysis: The exudate samples are thawed to room temperature and assayed by ELISA for PGE2 (R&D Systems, Cat. KGE004B, lot 307711). Statistical significance of treatments on mean exudate volumes are determined by comparison of means for treatment groups with vehicle group. Mean cytokine concentrations and standard deviations are determined for each group. […] Statistical significance (p-value) is calculated vs control groups by Student's t-Test. […]

CC(=O)NC(CCCNC(=N)N)C(=O)OCOC(=O)C1=Cc2cc(Cl)c(C(C)(C)C)cc2OC1C(F)(F)F (stereo not shown) [Example 33a, trifluoroacetate salt]
% Inhibition of PGE2 production relative to control (+/−S.D.): 75.7 (+/−11.9) %
